Earlier results on 1 molecule are cited in US20100221326A1, “PHARMACEUTICAL COMPOSITIONS FOR ORAL USE FOR TREATING PATIENTS AFFECTED BY OBESITY” (MADER S.R.L., priority 2007, published 2010).

For the data set the following is noted: raw material.

Regarding `CCCCCCCCCCC[C@@H](C[C@@H]1OC(=O)[C@H]1CCCCCC)OC(=O)[C@H](CC(C)C)NC=O` [Orlistat], where the note is “25° C., 65% RH, after 7 days' storage”, the “degradation of the active principle” value was 15%. For the same molecule, under “40° C., RH 75%”, the degradation result was “greater than 40%”.
